Experimental findings from US6855730B2, “3-methylidenyl-2-indolinone modulators of protein kinase” (Sugen, Inc., priority 1998, dated 2005) are described below.

Holding throughout (type): cell-based
For assay [1], the system named is HUV-EC-C cells (VEGF, Flk-1/KDR). Put plainly: HUV-EC-C assay, VEGF-stimulated 3H-thymidine incorporation. The settings on record: Homo sapiens, read-out: HUVEC-VEGF IC50. (In general: Incorporation of labelled thymidine or its analogues reports DNA synthesis.)
Experimental: (§1) Repeat the wash two more times with D-PBS, resuspend the cells in-about 1 ml assay medium/15 cm^2 of tissue culture flask. […] Add cells to 96-well flat-bottom plates at 100 μl/well or 0.8-1.0×10^4 cells/well, incubate −24h at 37° C., 5% CO2.
(§2) Use the same assay medium as mentioned in day 0, step 2 above. Titrations are made by adding 90 μl/well of test compound at 200 μM (4× the final well concentration) to the top well of a particular plate column. Since the stock test compound is usually 20 mM in DMSO, the 200 μM drug concentration contains 2% DMSO.
(§3) A diluent made up to 2% DMSO in assay medium (F12K+0.5% fetal bovine serum) is used as diluent for the test compound titrations in order to dilute the test compound but keep the DMSO concentration constant. Add this diluent to the remaining wells in the column at 60 μl/well. Take 60 μl from the 120 μl of 200 μM test compound dilution in the top well of the column and mix with the 60 μl in the second well of the column. Take 60 μl from this well and mix with the 60 μl in the third well of the column, and so on until two-fold titrations are completed. When the next-to-the-last well is mixed, take 60 μl of the 120 μl in this well and discard it. Leave the last well with 60 μl of DMSO/media diluent as a non-test compound-containing control. […] In triplicate, add 50 μl/well of 80 μg/ml VEGF, 20 ng/ml ECGF, or media control to each test compound condition. As with the test compounds, the growth factor concentrations are 4× the desired final concentration. Use the assay media from day 0 step 2 to make the concentrations of growth factors.
Freeze plates overnight at −20° C.
Assay [2] has as its system HUV-EC-C cells (aFGF, FGF-R). In words: cells. The conditions noted are these: Homo sapiens, HUVEC, read-out: HUVEC aFGF IC50.
Experimental: as §1, §2, §3
Freeze plates overnight at −20° C.
In assay [3] the test system is endogenous FGF receptors in 3Tc7/EGFr cells. Put plainly: FGF-induced BrdU incorporation assay. The conditions noted are these: read-out: FGF-Induced BrdU Incorp. IC50. Here is the method: The cellular/catalytic assays described herein are performed in an ELISA format. The general procedure is as follows: a compound is introduced to cells expressing the test kinase, either naturally or recombinantly, for a selected period of time after which, if the test kinase is a receptor, a ligand known to activate the receptor is added. The cells are lysed and the lysate is transferred to the wells of an ELISA plate previously coated with a specific antibody recognizing the substrate of the enzymatic phosphorylation reaction. Non-substrate components of the cell lysate are washed away and the amount of phosphorylation on the substrate is detected with an antibody specifically recognizing phosphotyrosine compared with control cells that were not contacted with a test compound. The cellular/biologic assays described herein measure the amount of DNA made in response to activation of a test kinase, which is a general measure of a proliferative response. The general procedure for this assay is as follows: a compound is introduced to cells expressing the test kinase, either naturally or recombinantly, for a selected period of time after which, if the test kinase is a receptor, a ligand known to activate the receptor is added. After incubation at least overnight, a DNA labeling reagent such as Bromodeoxyuridine (BrdU) or 3H-thymidine is added. The amount of labeled DNA is detected with either an anti-BrdU antibody or by measuring radioactivity and is compared to control cells not contacted with a test compound.
FGF-Induced BrdU incorporation Assay
This assay measures FGF-induced DNA synthesis in 3Tc7/EGFr cells that express endogenous FGF receptors.
Materials and Reagents: • 1. FGF: human FGF2/bFGF (Gibco BRL, No. 13256-029). • 2. BrdU Labeling reagent, (10 mM PBS (pH 7.4), Boehringer Mannheim Cat No. 1 647 229). • 3. Fixdenat fixation solution (Boehringer Mannheim Cat No. 1 647 229). • 4. Anti-BrdU-POD (mouse monoclonal antibody conjugated with peroxidase, Boehringer Mannheim Cat. No. 1 647 229). • 5. TMB (tetramethylbenzidine, Boehringer Mannheim Cat. No. 1 647 229). • 6. PBS washing solution, pH 7.4 (Sugen, Inc.). • 7. Albumin, bovine (BSA), fraction V powder (Sigma Chemical Co., Cat. No. A-8551)
Procedure • 1. 3T3 engineered cell line: 3T3c7/EGFr. • 2. Cells are seeded at 8,000 cells/well in DMEM, 10% CS and 2 mM Gln in a 96-well plate. Incubate 24 hours at 37° C. in 5% CO2. • 3. After 24 hours, wash cells with PBS then serum starve in serum free medium (0% DMEM, 0.1% BSA) for 24 hours. • 4. Add ligand (FGF2 (1.5 nM in DMEM with 0.1% BSA) and test compound simultaneously. Negative control wells receive serum free DMEM with 0.1% BSA only, positive control wells receive FGF2 ligand but no test compound. Test compounds are prepared in serum-free DMEM with ligand in a 96-well plate and serially diluted to make seven (7) test concentrations. • 5. After 20 hours, add diluted BrdU labeling reagent (1:100 BrdU:DMEM, 0.1% BSA, final concentration is 10 μM) to the cells and incubate for 1.5 hours. • 6. Decant medium. Remove traces of material with paper towel. Add FixDenat (50 μl/well) and incubate at room temperature for 45 minutes on a plate shaker. • 7. Remove Fixdenat solution. Add blocking solution (5% dehydrated milk in PBS (200 μl/well)) and incubate for 30 minutes at room temperature on a plate shaker. • 8. Decant blocking solution, wash wells once with PBS. Add anti-BrdU-POD solution (1:100 dilution in PBS, 0.1% BSA), incubate for 90 minutes at room temperature on a plate shaker. • 9. Decant antibody conjugate, rinse wells 5 times with PBS. Dry plate by inverting on paper towel and tapping. • 10. Add TMB solution (100 μl/well), incubate 20 minutes at room temperature on a plate shaker until color development is sufficient for photometric detection. • 11. Measure absorbance at 410 nm on a Dynatech ELISA plate reader using “Dual wavelength” mode with a filter at 490 nM. Biochemical EGFR Assay

The structures appear in SMILES notation. Read-outs that look alike come from different tables or passages of the source.

For orientation: IC50 means the concentration needed to halve the response being measured. For the compound `O=C(O)CCc1c(/C=C2\C(=O)Nc3ccc(Cl)cc32)[nH]c2c1CCCC2` [Example 191, 3-[2-(5-Chloro-2-oxo-1,2-dihydroindol-3-ylidenemethyl)-4,5,6,7-tetrahydro-1H-indol-3-yl]-propionic acid], the IC50 in assay [1] is 0.04 nM; in assay [2] (aFGF-stimulated), 250 nM; in assay [3] it was 23600 nM.
Take `O=C(O)CCc1c(/C=C2\C(=O)Nc3ccc(Br)cc32)[nH]c2c1CCCC2` [Example 192, 3-[2-(5-Bromo-2-oxo-1,2-dihydroindol-3-ylidenemethyl)-4,5,6,7-tetrahydro-1H-indol-3yl]-propionic acid]: the IC50 in assay [1] is 0.3 nM.
In the case of `Cc1ccc2c(c1)/C(=C/c1[nH]c3c(c1CCC(=O)O)CCCC3)C(=O)N2` [Example 194, 3-[2-(5-Methyl-2-oxo-1,2-dihydroindol-3-ylidenemethyl)-4,5,6,7-tetrahydro-1H-indol-3-yl]-propionic acid], the IC50 in assay [1] worked out at 1 nM.
As for `COc1ccc2c(c1)NC(=O)/C2=C\c1[nH]c2c(c1CCC(=O)O)CCCC2` [Example 196, 3-[2-(6-Methoxy-2-oxo-1,2-dihydroindol-3-ylidenemethyl)-4,5,6,7-tetrahydro-1H-indol-3-yl]-propionic acid], the IC50 in assay [1] turned out to be 20 nM; in assay [2] (aFGF-stimulated) it was 1600 nM.
With `CN(C)C(=O)CCc1c(/C=C2\C(=O)Nc3ccccc32)[nH]c2c1CCCC2` [Example 197, N,N-Dimethyl-3-[2-(2-oxo-1,2-dihydroindol-3-ylidenemethyl)-4,5,6,7-tetrahydro-1H-indol-3-yl]-propionamide], the values for the IC50 in assay [1], in assay [2] (aFGF-stimulated) and in assay [3] were under 3 nM, 202000 nM and over 50000 nM, respectively.
`CN(C)CCCc1c(/C=C2\C(=O)Nc3ccccc32)[nH]c2c1CCCC2` [Example 198, 3-[3-(3-Dimethylaminopropyl)-4,5,6,7-tetrahydro-1H-indol-2-ylmethylene]-1,3-dihydroindol-2-one]: in assay [3], the IC50 is over 50000 nM.
Consider `NC(=O)CCc1c(/C=C2\C(=O)Nc3ccccc32)[nH]c2c1CCCC2` [Example 199, 3-[2-(2-Oxo-1,2-dihydroindol-3-ylidenemethyl)-4,5,6,7-tetrahydro-1H-indol-3-yl]-propionamide], for which the IC50 was under 30 nM in assay [1], 100 nM in assay [2] (aFGF-stimulated) and over 50000 nM in assay [3].
As to `O=C1Nc2ccccc2/C1=C/c1[nH]c2c(c1CCC(=O)N1CCOCC1)CCCC2` [Example 200, 3-[3-(3-Morpholin-4-yl-3-oxopropyl)-4,5,6,7-tetrahydro-1H-indol-2-ylmethylene]-1,3-dihydroindol-2-one], the IC50 in assay [3] was over 50000 nM.
In the case of `CNC(=O)CCc1c(/C=C2\C(=O)Nc3ccccc32)[nH]c2c1CCCC2` [Example 201, N-Methyl-3-[2-(2-oxo-1,2-dihydroindol-3-ylidenemethyl)-4,5,6,7-tetrahydro-1H-indol-3-yl]-propionamide], the concentration for half-maximal inhibition (IC50) in assay [1] was under 30 nM; in assay [2] (aFGF-stimulated), 160 nM; in assay [3], over 50000 nM.
For the compound `O=C(CCc1c(/C=C2\C(=O)Nc3ccccc32)[nH]c2c1CCCC2)NCCN1CCOCC1` [Example 202, N-(2-Morpholin-4-ylethyl)-3-[2-(2-oxo-1,2-dihydroindol-3-ylidenemethyl)-4,5,6,7-tetrahydro-1H-indol-3-yl]-propionamide], the IC50 in assay [1] is under 30 nM; in assay [3], over 50000 nM.
For `Cc1c[nH]c(/C=C2\C(=O)Nc3ccccc32)c1CCC(=O)O` [Example 215, 3-[4-Methyl-2-(2-oxo-1,2-dihydroindol-3-ylidenemethyl)-1H-pyrrol-3-yl]-propionic acid], the IC50 in assay [2] came to 1100 nM; in assay [3] it was 25000 nM.
Consider `Cc1c[nH]c(/C=C2\C(=O)Nc3ccc(Cl)cc32)c1CCC(=O)O` [Example 216, 3-[2-(5-Chloro-2-oxo-1,2-dihydroindol-3-ylidenemethyl)-4-methyl-1H-pyrrol-3-yl]-propionic acid], for which the IC50 in assay [1] is under 70 nM.
Regarding `COc1ccc2c(c1)NC(=O)/C2=C\c1[nH]cc(C)c1CCC(=O)O` [Example 217, 3-[2-(6-Methoxy-2-oxo-1,2-dihydroindol-3-ylidenemethyl)-4-methyl-1H-pyrrol-3-yl]-propionic acid], in assay [3], the IC50 was over 50000 nM.
`Cc1c[nH]c(/C=C2\C(=O)Nc3cccc(C)c32)c1CCC(=O)O` [Example 218, 3-[2-(4-Methyl-2-oxo-1,2-dihydroindol-3-ylidenemethyl)-4-methyl-1H-pyrrol-3-yl]-propionic acid]: the figures for the IC50 in assay [1] and in assay [3] were under 70 nM and over 50000 nM, respectively.
For `Cc1c[nH]c(/C=C2\C(=O)Nc3ccc(Br)cc32)c1CCC(=O)O` [Example 220, 3-[2-(5-Bromo-2-oxo-1,2-dihydroindol-3-ylidenemethyl)-4-methyl-1H-pyrrol-3-yl]-propionic acid], in that order: 40 nM and over 50000 nM.
